Experimental data as given in patent US20240139185A1, “COMPOUNDS THAT PARTICIPATE IN COOPERATIVE BINDING AND USES THEREOF” (Revolution Medicines, Inc., priority 2018, published 2024).

Key:
[1] = target: T1, BRAF-GTP-KRAS-G12C complex (Homo sapiens, UniProt P01116+P62937, G12C); experiment: KRAS-BRAF complex disruption through competition with CYPA-compound by TR-FRET; conditions: biochemical BRAF-KRAS G12C-GTP disruption assay EC50, with CYPA
T1 construct: 50 nM of His6-KRas G12C-GTP (1-169); 500 nM of tagless CypA (1-165)
How it was run: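 Compound-driven loss of KRAS–BRAF RBD TR-FRET signal, Eu-anti-His/APC-anti-GST pair (10/50 nM, 1.5 h), following a 3 h room-temperature preincubation of 50 nM His6-KRAS G12C-GTP and 500 nM CypA in 25 mM Hepes pH 7.3 buffer. EC50 by 4-parameter fit. Variants used wild-type KRAS in place of G12C or no CypA.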

[2] = system: pERK in H358 cells; experiment: pERK inhibition in H358 cells; assay type: cell-based, human; conditions: 4 hours treatment, read-out: Cellular pERK inhibition
How it was run: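 Human lung cancer H358 cells in RPMI/10% FBS were exposed to compound or DMSO for 4 h. Fixed and permeabilized cells were stained overnight at 4 C with anti-phospho-ERK1/2 (Thr202/Tyr204). Near-infrared imaging read the pERK signal at 800 nm, with DRAQ5 at 700 nm.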

[3] = target: cyclophilin A (CYPA) (Homo sapiens, UniProt P62937); experiment: CYPA-compound binary complex formation by SPR; conditions: read-out: CYPA Binding Affinity
How it was run: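 Steady-state fit of SPR responses gave binding affinity. Analyte series: 50 μM downward, 2-fold, 10 points, running buffer HBS-P+ (0.05% Tween20, pH7.4, 2% DMSO), 60 s on/60 s off. Surface: biotinylated CypA-Avi captured at 4 μg/ml against a reference cell, regenerated with NaOH/guanidine.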

EC50 [1] [µM] | IC50 [2] [µM] | Kd [3] [µM] | Compound
≤ 0.5 | 1 to 10 | > 15 | CC(C)[C@@H](C(=O)N[C@H]1Cc2cc(O)cc(c2)-c2ccc3c(-c4ccccc4Cl)cn(c3c2)CC(C)(C)COC(=O)[C@@H]2CCCN(N2)C1=O)N(C)C(=O)C1CN(C(=O)CCl)C1 [Compound 241]
≤ 0.5 | 1 to 10 | > 15 | CC(C)[C@@H](C(=O)N[C@H]1Cc2cc(O)cc(c2)-c2ccc3c(-c4ccccc4F)cn(c3c2)CC(C)(C)COC(=O)[C@@H]2CCCN(N2)C1=O)N(C)C(=O)C1CN(C(=O)CCl)C1 [Compound 242]
≤ 0.5 | 1 to 10 | 5 to 15 | CC(C)C1COC(=O)[C@@H]2CCCN(N2)C(=O)[C@@H](NC(=O)[C@H](C(C)C)N(C)C(=O)C2CN(C(=O)CCl)C2)Cc2cc(O)cc(c2)-c2ccc3c(C(C)(C)C#N)cn(c3c2)C1 (stereo partly drawn) [Compound 246]
≤ 0.5 | ≤ 1 | ≤ 5 | CC(C)[C@@H](C(=O)N[C@H]1Cc2cc(O)cc(c2)-c2ccc3c(CCC#N)cn(c3c2)CC(C)(C)COC(=O)[C@@H]2CCCN(N2)C1=O)N(C)C(=O)C1CN(C(=O)CCl)C1 [Compound 256]
≤ 0.5 | 1 to 10 | 5 to 15 | CC(C)[C@@H](C(=O)N[C@H]1Cc2cc(O)cc(c2)-c2ccc3c(-c4ccn(C)n4)cn(c3c2)CC(C)(C)COC(=O)[C@@H]2CCCN(N2)C1=O)N(C)C(=O)C1CN(C(=O)CCl)C1 [Compound 257]
0.5 to 5 | > 10 | 5 to 15 | CC#CC(=O)N1CC2(CCN([C@H](C(=O)N[C@H]3Cc4cc(O)cc(c4)-c4ccc5c(C(C)(C)C#N)cn(c5c4)CC(C)(C)COC(=O)[C@@H]4CCCN(N4)C3=O)C(C)C)C2=O)C1 [Compound 259]
> 5 | > 10 | ≤ 5 | CC(C)[C@@H](C(=O)N[C@H]1Cc2cc(O)nc(c2)-c2ccc3c(C(C)(C)C#N)cn(c3c2)CC(C)(C)COC(=O)[C@@H]2CCCN(N2)C1=O)N(C)C(=O)C1CN(C(=O)CCl)C1 [Compound 339]
0.5 to 5 | 1 to 10 | ≤ 5 | CC#CC(=O)N1CCN(C(=O)N(C)[C@H](C(=O)N[C@H]2Cc3cc(O)cc(c3)-c3ccc4c(C(C)(C)C#N)cn(c4c3)CC(C)(C)COC(=O)[C@@H]3CCCN(N3)C2=O)C(C)C)CC1 [Compound 343]
0.5 to 5 | 1 to 10 | 5 to 15 | C=CC(=O)N1CCN(C(=O)N(C)[C@H](C(=O)N[C@H]2Cc3cc(O)cc(c3)-c3ccc4c(C(C)(C)C#N)cn(c4c3)CC(C)(C)COC(=O)[C@@H]3CCCN(N3)C2=O)C(C)C)CC1 [Compound 344]
> 5 | > 10 | ≤ 5 | C=CC(=O)N1CCC(C(=O)N(C)C(C(=O)NC2Cc3cc(O)cc(c3)-c3ccc4c(c3)N(CC(C)COC(=O)C3CCCN(N3)C2=O)CC4(C)C(C)=O)C(C)C)C1 (stereo not drawn) [Compound 391]
0.5 to 5 | 1 to 10 | 5 to 15 | C=CC(=O)N1CCC(C(=O)N(C)C(C(=O)NC2Cc3cc(O)cc(c3)-c3ccc4c(c3)c(cn4-c3cc(COC)ccc3C#N)CC(C)(C)COC(=O)C3CCCN(N3)C2=O)C(C)C)C1 (stereo not drawn) [Compound 393]
0.5 to 5 | > 10 | 5 to 15 | C=CC(=O)N1CCC(C(=O)N(C)C(C(=O)NC2Cc3cc(O)cc(c3)-c3ccc4c(-c5c(COC)noc5C)cn(c4c3)CC(C)(C)COC(=O)C3CCCN(N3)C2=O)C(C)C)C1 (stereo not drawn) [Compound 394]
0.5 to 5 | ≤ 1 | ≤ 5 | C=CC(=O)N1CCC(C(=O)N(C)C(C(=O)NC2Cc3cc(O)cc(c3)-c3ccc4c(c3)c(cn4C(C)(C)C#N)CC(C)(C)COC(=O)C3CCCN(N3)C2=O)C2CCCC2)C1 (stereo not drawn) [Compound 395]
≤ 0.5 | ≤ 1 | ≤ 5 | C=CC(=O)N1CCC(C(=O)N(C)C(C(=O)NC2Cc3cc(O)cc(c3)-c3ccc4c(c3)c(c(C#N)n4CC)CC(C)(C)COC(=O)C3CCCN(N3)C2=O)C2CCCC2)C1 (stereo not drawn) [Compound 397]
0.5 to 5 | ≤ 1 | ≤ 5 | C=CC(=O)N1CCC(C(=O)N(C)C(C(=O)NC2Cc3cc(O)cc(c3)-c3ccc4c(c3)N(CC(C)(C)COC(=O)C3CCCN(N3)C2=O)CC4(C)COC)C2CCCC2)C1 (stereo not drawn) [Compound 398]
≤ 0.5 | 1 to 10 | 5 to 15 | C=CC(=O)N1CCC(C(=O)N(C)C(C(=O)NC2Cc3cc(O)cc(c3)-c3ccc4c(c3)c(c(C#N)n4CCOC)CC(C)(C)COC(=O)C3CCCN(N3)C2=O)C(C)C)C1 (stereo not drawn) [Compound 400]
≤ 0.5 | 1 to 10 | > 15 | C=CC(=O)N1CCC(C(=O)N(C)C(C(=O)NC2Cc3cc(O)cc(c3)-c3ccc4c(c3)N(CC(C)(C)COC(=O)C3CCCN(N3)C2=O)CC4(C=CC#N)COC)C(C)C)C1 (stereo not drawn) [Compound 404]
0.5 to 5 | ≤ 1 | 5 to 15 | C=CC(=O)N1CCC(C(=O)N(C)C(C(=O)NC2Cc3cc(O)cc(c3)-c3ccc4c(c3)c(cn4C(C#N)(CC)CC)CC(C)(C)COC(=O)C3CCCN(N3)C2=O)C(C)CC)C1 (stereo not drawn) [Compound 405]
